Values quoted from earlier work as cited in patent US7884091B2, “Methods for treating delirium using glucocorticoid receptor-specific antagonists” (Corcept Therapeutics, Inc., priority 2001, dated 2011).

Settings: in one study; Kawai (1989) supra

daily dose excreted in the urine: less than 0.5%
Compound: CC#C[C@]1(O)CC[C@H]2[C@@H]3CCC4=CC(=O)CCC4=C3[C@@H](c3ccc(N(C)C)cc3)C[C@@]21C [mifepristone, 17-beta-hydroxy-11-beta-(4-dimethyl-aminophenyl)-17-alpha-(1-propynyl)-estra-4,9-dien-3-one]
